Entries after “also recorded” stand apart in the source; their conditions may differ.
What was measured:
Format in all cases: cell-based
[1] = system: BRCA2-positive PEO4 cells; assay: Clonogenic assay, PEO4; conditions: 72 hours
Experimental: FIG. 5. NHEJ is a major contributor to PARP inhibitor effects in BRCA2-deficient cells. (A) Western blots showing knockdown of Ku80 in PEO1 and PEO4 cells. (B) Clonogenic survival of PEO1 and PEO4 cells from (A), which were treated with the indicated ABT-888 concentration for 72 hours, washed, and allowed to form colonies. (C) Western blots following treatment with siRNA targeting luciferase (control), Ku80, PARP1, or both Ku80 and PARP1. (D) Clonogenic viability of PEO 1 and PEO4 cells from (C). Following knockdown, cells were plated onto triplicate plates and allowed to form colonies. (E) Clonogenic survival of PEO1 cells following Artemis knockdown. After treatment with the indicated siRNA, plates were treated with indicated concentration of ABT-888 for 72 hours, washed, and allowed to form colonies. Inset, Western blots showing knockdown using luciferase (control) or Artemis siRNAs in PEO1 cells. (F) Clonogenic survival of PEO1 and PEO4 cells treated for 72 hours with ABT-888 in combination with diluent or 500 nM DNA-PKi. All results are reported as means of triplicate plates±SEM, and are representative of 3 independent experiments.
Colony formation assays were performed on siRNA-transfected PEO1 and PEO4 cells 48 hours after the second transfection. Cells were trypsinized and plated at 750 cells/plate in triplicate 60-mm dishes containing medium A, allowed to grow 10-14 days, and stained with Coomassie Brilliant Blue. Colonies containing ≧50 cells were scored manually. To assess methyl methanesulfonate (MMS) sensitivity, PEO1 or PEO4 cells were incubated for 48 hours after the second siRNA treatment, plated onto 60-mm dishes, allowed to adhere for 4 hours, exposed to the indicated concentration of MMS (Sigma-Aldrich) for 1 hour, washed with sterile RPMI 1640, and allowed to grow into colonies in medium A. For drug treatment, cells (without siRNA) were allowed to adhere for 4-6 hours, then treated with the indicated concentrations of ABT-888 and/or AZ12594248 for 72 hours. […]

[2] = system: NHEJ activity in PEO4 cells; assay: NHEJ end-joining reporter assay, PEO4; conditions: 72 hours
Excerpt: FIG. 3. Error-prone NHEJ activity is enhanced by PARP inhibitors in PEO1 cells. (A) Schematic of the in vivo NHEJ assay. Pem1-Ad2-EGFP is an EGFP-containing vector with a 2.4 kb intron (Pem1) and one exon (Ad2) inserted into the EGFP cassette. Pem1-Ad2-EGFP was cut with either HindIII or I-SceI to produce linearized substrate with compatible overhangs or incompatible inverted overhangs, respectively. Successfully recircularized plasmid will produce intact EGFP, which can be assayed via flow cytometry. Any residual uncut plasmid, due to the insertion of the Ad2 exon within the EGFP open reading frame, will be EGFP negative. A pCherry plasmid was co-transfected with substrate to correct for transfection efficiency. (B) and (C) Quantitation of NHEJ activity in PEO1 and PEO4 cells transfected with HindIII substrate (B) or I-SceI substrate (C) and exposed to ABT-888 for 72 hours. Each data point represents the mean±SEM from 3 independent experiments.
The end-joining reporter plasmid pEGFP-Pem1-Ad2 described elsewhere (Wang et al., Nucleic Acids Res., 34:6170-6182 (2006); Seluanov et al., Proc. Natl. Acad. Sci. USA, 101:7624-7629 (2004); and Fattah et al., PLoS Genet., 6:e1000855 (2010); see also (FIG. 3A)) was provided by E. Hendrickson (University of Minnesota, Minneapolis, Minn.) and was digested with either HindIII or I-SceI for 12 hours, and gel purified using a Qiagen gel extraction kit. […]

[3] = system: DNA-PKcs-reconstituted M059J cells; assay: Clonogenic assay, M059J+DNA-PKcs; conditions: BRCA1 shRNA
Experimental: FIG. 6. […] (A) BRCA1-deficient HCC1937 and BRCA1-reconstituted HCC1937/BRCA1 cells were continuously exposed to ABT-888 in the presence or absence of 125 nM DNA-PKi and assayed for clonogenic survival. Inset, Western blots of cell lysates from HCC1937 and HCC1937/BRCA1. (B) Western blots of M059J and reconstituted M059J+DNA-PKcs lines showing the restoration of DNA-PK expression and the shRNA-mediated knockdown of BRCA1. (C) Clonogenic survival of shRNA transfected M059J/M059J+DNA-PKcs lines treated with ABT-888 for 72 hours. (D) Clonogenic survival of ATM-deficient GM16666 or ATM-reconstituted GM16667 fibroblasts. Cells were exposed to ABT-888 for 48 hours in the presence or absence of 250 nM DNA-PKi, washed, and allowed to form colonies. Inset, Western blots of lysates from GM16666 and GM16667 fibroblasts. […] Results are representative of 3 independent experiments.
All siRNA oligonucleotides were purchased from Ambion, Inc. (Austin, Tex.). Sequences, with references, are provided below. PEO1 and PEO4 cells were transfected with 150 picomoles of siRNA using the HiPerfect lipid transfection reagent (Qiagen; Valencia, Calif.). […]
Colony formation assays were performed on siRNA-transfected PEO1 and PEO4 cells 48 hours after the second transfection. […] Colonies containing ≧50 cells were scored manually. […]

## C[C@]1(c2nc3c(C(N)=O)cccc3[nH]2)CCCN1 [ABT-888]
[1]
  clonogenic survival: resistant to the effects of ABT-888
[1]; Ku80 siRNA
  clonogenic survival with ABT-888 after Ku80 knockdown: unaffected by Ku80 siRNA
[2]
  end-joining of HindIII-linearized substrate: little effect; also recorded: small increase in end-joining
[3]
  clonogenic sensitivity to ABT-888 after BRCA1 knockdown: sensitized
